This series can be described thus: Isoelectric point of the sterol derivative. The series is classed as physicochemical. The following applies: stated as very close to pH 6.5.

For 1 compound, isoelectric point results are on record in patent US7407947B2, “Amphoteric sterols and the use thereof” (Novosom AG, priority 2001, dated 2008).

Consider `CC(C)CCCC(C)C1CCC2C3CC=C4CC(OC(=O)CCC(=O)NC(Cc5cnc[nH]5)C(=O)O)CCC4(C)C3CCC12C` [Hist-Chol, Cholesteryl-L-histidyl Succinate], for which the isoelectric point is approximately 6.5.
